Data as given in patent US7745495B2, “Pyridine ketones with herbicidal effect” (Syngenta Crop Protection, Inc., priority 2004, dated 2010).

Columns and labels:
Assay type in all cases: in vivo
Abutilon [1] = experiment: Pre-emergence herbicidal action; conditions: rating 10=total damage, 0=no action
Description: (§1) Monocotyledonous and dicotyledonous test plants are sown in standard soil in plastic pots. […] The test plants are then grown in a greenhouse under optimum conditions. After a test duration of 3 weeks, the test is evaluated in accordance with a scale of ten ratings (10=total damage, 0=no action). Ratings of from 10 to 7 (especially from 10 to 8) indicate good to very good herbicidal action.

Amaranthus = experiment: Pre-emergence herbicidal action; conditions: rating 10=total damage, 0=no action
Description: as §1

Digitaria [2] = experiment: Pre-emergence herbicidal action; conditions: rating 10=total damage, 0=no action
Description: as §1

Echinochloa = experiment: Pre-emergence herbicidal action; conditions: rating 10=total damage, 0=no action
Description: as §1

Panicum [3] = experiment: Pre-emergence herbicidal action; conditions: rating 10=total damage, 0=no action; for Pre-emergent Herbicidal Activity: Panicum: Table B4
Description: as §1

Chenopodium [4] = experiment: Pre-emergence herbicidal action; conditions: 250 g/ha; after 3 weeks; rating 10=total damage, 0=no action
Description: (§2) Monocotyledonous and dicotyledonous test plants are sown in standard soil in plastic pots. Immediately after sowing, the test compounds, in the form of an aqueous suspension (prepared from a 25% wettable powder (Example F3, b) according to WO 97/34485) or in the form of an emulsion (prepared from a 25% emulsifiable concentrate (Example F1, c)), are applied by spraying a concentration corresponding to 125 g or 250 g of active ingredient/ha (500 liter of water/ha). The test plants are then grown in a greenhouse under optimum conditions. After a test duration of 3 weeks, the test is evaluated in accordance with a scale of ten ratings (10=total damage, 0=no action). Ratings of from 10 to 7 (especially from 10 to 8) indicate good to very good herbicidal action.

Stellaria [5] = experiment: Pre-emergence herbicidal action; conditions: 250 g/ha; after 3 weeks; rating 10=total damage, 0=no action
Description: as §2

Corn = experiment: Pre-emergent herbicidal activity on crop plant; conditions: crop plant, rating 10=total damage, 0=no action; for Pre-emergent Herbicidal Activity: Mais: Table B5
Description: as §1
(§3) In the following Table B3, the pre-emergent herbicidal activity of compound H-14 according to the invention is compared with 4 compounds according to the prior art. All compounds are structurally identical except for the nature of the alkylene linker attached to the pyridine ring.

Soya = experiment: Pre-emergent herbicidal activity on crop plant; conditions: crop plant, rating 10=total damage, 0=no action; for Pre-emergent Herbicidal Activity: Soja: Table B5
Description: as §1, §3

Brachiaria = experiment: Pre-emergent herbicidal activity; conditions: rating 10=total damage, 0=no action
Description: as §1, §3

Setaria [6] = experiment: Pre-emergent herbicidal activity; conditions: Table B3, rating 10=total damage, 0=no action
Description: as §1, §3

Abutilon [7] = experiment: Post-emergence herbicidal action; conditions: 250 g/ha; 4- to 6-leaf stage; after about 18 days; rating 10=total damage, 0=no action
Description: (§4) In a greenhouse, monocotyledonous and dicotyledonous test plants are grown in standard soil in plastic pots and at the 4- to 6-leaf stage are sprayed with an aqueous suspension of the test compounds of formula I prepared from a 25% wettable powder (Example F3, b) according to WO 97/34485) or with an emulsion of the test compounds of formula I prepared from a 25% emulsifiable concentrate (Example F1, c) according to WO 97/34485), in a concentration corresponding to 125 g or 250 g of active ingredient/ha (500 liter of water/ha). The test plants are then grown on in a greenhouse under optimum conditions. After a test duration of about 18 days, the test is evaluated in accordance with a scale of ten ratings (10=total damage, 0=no action). Ratings of from 10 to 7 (especially from 10 to 8) indicate good to very good herbicidal action.

Chenopodium [8] = experiment: Post-emergence herbicidal action; conditions: 250 g/ha; 4- to 6-leaf stage; after about 18 days; rating 10=total damage, 0=no action
Description: as §4

Digitaria [9] = experiment: Post-emergence herbicidal action; conditions: 250 g/ha; 4- to 6-leaf stage; after about 18 days; rating 10=total damage, 0=no action
Description: as §4

Ipomea = experiment: Post-emergence herbicidal action; conditions: 250 g/ha; 4- to 6-leaf stage; after about 18 days; rating 10=total damage, 0=no action
Description: as §4

Panicum [10] = experiment: Post-emergence herbicidal action; conditions: 250 g/ha; 4- to 6-leaf stage; after about 18 days; rating 10=total damage, 0=no action
Description: as §4

Setaria [11] = experiment: Post-emergence herbicidal action; conditions: 250 g/ha; 4- to 6-leaf stage; after about 18 days; rating 10=total damage, 0=no action
Description: as §4

Sinapis = experiment: Post-emergence herbicidal action; conditions: 250 g/ha; 4- to 6-leaf stage; after about 18 days; rating 10=total damage, 0=no action
Description: as §4

Stellaria [12] = experiment: Post-emergence herbicidal action; conditions: 250 g/ha; 4- to 6-leaf stage; after about 18 days; rating 10=total damage, 0=no action
Description: as §4

Xanthium = experiment: Pre-emergent herbicidal activity; conditions: Table B4, rating 10=total damage, 0=no action
Description: as §1
In the following Table B4, the pre-emergent herbicidal activity of compound H-3 according to the invention is compared with compound D according to the prior art. Both compounds are structurally identical except for the length of the alkylene linker attached to the pyridine ring.

Scirpus = experiment: Pre-emergent herbicidal activity; conditions: Table B5, rating 10=total damage, 0=no action
Description: as §1
In the following Table B5, the pre-emergent herbicidal activity of compound H-9 according to the invention is compared with compound E according to the prior art. Both compounds are structurally identical except for the length of the alkylene linker attached to the pyridine ring.

COCCCc1nc(C(F)(F)F)ccc1C(=O)C1C(=O)C2CCC(C2)C1=O (stereo not shown) [Compound H-14, 3-[6-trifluoromethyl-2-(3-methoxy-propyl)-pyridine-3-carbonyl]-bicyclo[3.2.1]octane-2,4-dione]
Pre-emergence herbicidal action: Abutilon (Abutilon [1]; 250 g/ha, after 3 weeks): 10 | Pre-emergent Herbicidal Activity: Abutilon (Abutilon [1]; Table B3, 15 g/ha): 9 | Pre-emergent Herbicidal Activity: Abutilon (Abutilon [1]; Table B3, 30 g/ha): 10 | Pre-emergence herbicidal action: Amaranthus (Amaranthus; 250 g/ha, after 3 weeks): 10 | Pre-emergent Herbicidal Activity: Amaranthus (Amaranthus; Table B3, 15 g/ha): 7 | Pre-emergent Herbicidal Activity: Amaranthus (Amaranthus; Table B3, 30 g/ha): 7 | Pre-emergence herbicidal action: Digitaria (Digitaria [2]; 250 g/ha, after 3 weeks): 10 | Pre-emergence herbicidal action: Echinochloa (Echinochloa; 250 g/ha, after 3 weeks): 10 | Pre-emergent Herbicidal Activity: Echinochloa (Echinochloa; Table B3, 15 g/ha): 9 | Pre-emergent Herbicidal Activity: Echinochloa (Echinochloa; Table B3, 30 g/ha): 10 | Pre-emergence herbicidal action: Panicum (Panicum [3]; 250 g/ha, after 3 weeks): 10 | Pre-emergence herbicidal action: Chenopodium (Chenopodium [4]): 10 | Pre-emergence herbicidal action: Stellaria (Stellaria [5]): 8 | Pre-emergent Herbicidal Activity: Corn (Corn; Table B3, 15 g/ha): 0 | Pre-emergent Herbicidal Activity: Corn (Corn; Table B3, 30 g/ha): 0 | Pre-emergent Herbicidal Activity: Soya (Soya; Table B3, 15 g/ha): 1 | Pre-emergent Herbicidal Activity: Soya (Soya; Table B3, 30 g/ha): 3 | Pre-emergent Herbicidal Activity: Brachiaria (Brachiaria; Table B3, 15 g/ha): 7 | Pre-emergent Herbicidal Activity: Brachiaria (Brachiaria; Table B3, 30 g/ha): 8 | Pre-emergent Herbicidal Activity: Setaria (Setaria [6]; 15 g/ha): 9 | Pre-emergent Herbicidal Activity: Setaria (Setaria [6]; 30 g/ha): 10 | Post-emergence herbicidal action: Abutilon (Abutilon [7]): 10 | Post-emergence herbicidal action: Chenopodium (Chenopodium [8]): 10 | Post-emergence herbicidal action: Digitaria (Digitaria [9]): 9 | Post-emergence herbicidal action: Ipomea (Ipomea): 10 | Post-emergence herbicidal action: Panicum (Panicum [10]): 10 | Post-emergence herbicidal action: Setaria (Setaria [11]): 10 | Post-emergence herbicidal action: Sinapis (Sinapis): 10 | Post-emergence herbicidal action: Stellaria (Stellaria [12]): 10

COCc1nc(C(F)F)ccc1C(=O)C1C(=O)C2CCC(C2)C1=O (stereo not shown) [D, reference compound]
Pre-emergent Herbicidal Activity: Abutilon (Abutilon [1]; Table B4, 30 g/ha): 6 | Pre-emergent Herbicidal Activity: Abutilon (Abutilon [1]; Table B4, 60 g/ha): 9 | Pre-emergent Herbicidal Activity: Amaranthus (Amaranthus; Table B4, 30 g/ha): 7 | Pre-emergent Herbicidal Activity: Amaranthus (Amaranthus; Table B4, 60 g/ha): 7 | Pre-emergent Herbicidal Activity: Digitaria (Digitaria [2]; Table B4, 30 g/ha): 7 | Pre-emergent Herbicidal Activity: Digitaria (Digitaria [2]; Table B4, 60 g/ha): 9 | Pre-emergent Herbicidal Activity: Echinochloa (Echinochloa; Table B4, 30 g/ha): 5 | Pre-emergent Herbicidal Activity: Echinochloa (Echinochloa; Table B4, 60 g/ha): 7 | Pre-emergent Herbicidal Activity: Panicum (Panicum [3]; 30 g/ha): 8 | Pre-emergent Herbicidal Activity: Panicum (Panicum [3]; 60 g/ha): 9 | Pre-emergent Herbicidal Activity: Corn (Corn; Table B4, 30 g/ha): 0 | Pre-emergent Herbicidal Activity: Corn (Corn; Table B4, 60 g/ha): 0 | Pre-emergent Herbicidal Activity: Soya (Soya; Table B4, 30 g/ha): 2 | Pre-emergent Herbicidal Activity: Soya (Soya; Table B4, 60 g/ha): 3 | Pre-emergent Herbicidal Activity: Xanthium (Xanthium; 30 g/ha): 0 | Pre-emergent Herbicidal Activity: Xanthium (Xanthium; 60 g/ha): 0

COCc1nc(C(F)(F)Cl)ccc1C(=O)C1C(=O)C2CCC(C2)C1=O (stereo not shown) [E, reference compound]
Pre-emergent Herbicidal Activity: Abutilon (Abutilon [1]; Table B5, 30 g/ha): 0 | Pre-emergent Herbicidal Activity: Abutilon (Abutilon [1]; Table B5, 60 g/ha): 0 | Pre-emergent Herbicidal Activity: Amaranthus (Amaranthus; Table B5, 30 g/ha): 5 | Pre-emergent Herbicidal Activity: Amaranthus (Amaranthus; Table B5, 60 g/ha): 7 | Pre-emergent Herbicidal Activity: Digitaria (Digitaria [2]; Table B5, 30 g/ha): 6 | Pre-emergent Herbicidal Activity: Digitaria (Digitaria [2]; Table B5, 60 g/ha): 6 | Pre-emergent Herbicidal Activity: Echinochloa (Echinochloa; Table B5, 30 g/ha): 8 | Pre-emergent Herbicidal Activity: Echinochloa (Echinochloa; Table B5, 60 g/ha): 9 | Pre-emergent Herbicidal Activity: Mais (Corn; 30 g/ha): 0 | Pre-emergent Herbicidal Activity: Mais (Corn; 60 g/ha): 0 | Pre-emergent Herbicidal Activity: Soja (Soya; 30 g/ha): 2 | Pre-emergent Herbicidal Activity: Soja (Soya; 60 g/ha): 4 | Pre-emergent Herbicidal Activity: Brachiaria (Brachiaria; Table B5, 30 g/ha): 0 | Pre-emergent Herbicidal Activity: Brachiaria (Brachiaria; Table B5, 60 g/ha): 0 | Pre-emergent Herbicidal Activity: Scirpus (Scirpus; 30 g/ha): 9 | Pre-emergent Herbicidal Activity: Scirpus (Scirpus; 60 g/ha): 9
